Measured values from ChEMBL document CHEMBL5303709, “ECBD screening data for assay EOS300041” (2022).
Peptide text beside a SMILES is read from it. * marks the point of attachment. Cbz = O=C(OCc1ccccc1)*

Target: Replicase polyprotein 1ab (Severe acute respiratory syndrome coronavirus 2) (UniProt P0DTD1)
Test: Inhibition of SARS-CoV-2 3CL-Pro proteolytic cleavage of a dual-labeled substrate by FRET.
Format: functional
Design: assay stage

Compound	IC50 relative [µM]
COc1ccnc(C[S+]([O-])c2nc3cc(OC(F)F)ccc3[nH]2)c1OC (configuration not stated)	> 20
O=C(c1cccs1)c1no[n+]([O-])c1C(=O)c1cccs1	11
O=C1C(Cl)=C(Cl)C(=O)C(Cl)=C1Cl	< 0.02
Cc1ccc(-n2sc(=O)n(Cc3ccc(F)cc3)c2=O)cc1	< 0.02
Cc1ccc(-n2sc3ccccc3c2=O)cc1	< 0.02
CN1CCN(C(=O)c2ccc(-c3ccc4c(C=O)c(O)ccc4c3)s2)CC1	1.94
CC(C)C[C@@H](C=O)NC(=O)[C@H](CC(C)C)NC(=O)[C@H](CC(C)C)NC(=O)OCc1ccccc1 (Cbz-Leu-Leu-Leu-aldehyde)	> 20
CCN(CC)C(=S)S	> 20
[O-][n+]1ccccc1S	0.0487
CCN(CC)S(=O)(=O)c1cccc(-n2sc3ccccc3c2=O)c1	< 0.02
CCOC(=O)c1c(N)sc(-c2ccccc2)c1C	3.28
Nc1ccc(O)c2ncccc12	2.05
O=[N+]([O-])c1ccc(Sc2cccc[n+]2[O-])c2nonc12	< 0.02
O=c1c2ccccc2sn1-c1ccccc1	< 0.02
O=C(O)[C@@H](S)[C@@H](S)C(=O)O	6.74
COc1ccc2[nH]c([S+]([O-])Cc3ncc(C)c(OC)c3C)nc2c1 (configuration not stated)	> 20
O=C(CCl)c1ccccc1	0.19
CC(Cc1ccc(O)c(O)c1)C(C)Cc1ccc(O)c(O)c1 (configuration not stated)	> 20
Nc1nc(S)c2ncn(C3OC(CO)C(O)C3O)c2n1 (configuration not stated)	1.07
COC(=O)CC[C@H](NC(=O)[C@H](CC(=O)OC)NC(=O)OCc1ccccc1)C(=O)N[C@H](C(=O)N[C@@H](CC(=O)OC)C(=O)CF)C(C)C	< 0.02
COc1cc(N(C)C)cc(CN(C)CCc2ccc([N+](=O)[O-])cc2)c1O	6.09
S=C=NCc1ccccc1	> 20
CC1=CC(=O)c2ccccc2C1=O	> 20
O=C(O)c1c(Cl)c(Cl)c(Cl)c(Cl)c1-c1c2cc(I)c(=O)c(I)c-2oc2c(I)c(O)c(I)cc12	> 20
COc1ccc2[nH]c3c(S)ncnc3c2c1	> 20
COc1ccc2[nH]c(S)nc2c1	> 20

Compound	IC50 relative [µM]
CC(C)(C)OC(=O)NCCc1nnc(S(=O)(=O)Cc2ccc(Cl)cc2Cl)o1	4.22
O=C(Nc1ccccc1)Nc1ccc(-c2ccc(C(=O)[C@@H]3CCC[C@H]3C(=O)O)cc2)cc1	> 20
C[C@H]1COC2=C1C(=O)C(=O)c1c2ccc2c1CCCC2(C)C	> 20
Sc1nnc(Nc2ccccc2)s1	0.39
COc1ncc(-c2ccc3nccc(-c4ccnnc4)c3c2)cc1NS(=O)(=O)c1ccc(F)cc1F	> 20
Cc1cc(-c2ccc(/C=C3/S/C(=N\c4ccc(Cl)c(C(=O)O)c4)NC3=O)o2)c([N+](=O)[O-])cc1C	> 20
CCOc1cc(C(Nc2cc(C)ccn2)c2ccc3cccnc3c2O)ccc1OC (configuration not stated)	0.269
Cc1c(-c2ccc(N3CCc4cccc(C(=O)Nc5nc6ccccc6s5)c4C3)nc2C(=O)O)cnn1CC12CC3CC(CC(C3)C1)C2	> 20
S=C=Nc1cccc(NC(=S)NCCCCNC(=S)Nc2cccc(N=C=S)c2)c1	> 20
Oc1cc2c(cc1C(c1ccc(C(F)(F)F)cc1)N1CCOCC1)OCO2 (configuration not stated)	0.545
O=C(/C=C/c1ccc2ccccc2n1)c1ccncc1	> 20
Sc1nnc(-c2ccccc2Cl)o1	> 20
NC(Cc1cc(O)c(O)cc1O)C(=O)O (racemic)	> 20
Cn1sc(=O)n(Cc2ccccc2)c1=O	< 0.02
CCCCn1c(NC(=O)c2cccs2)c(C#N)c2nc3ccccc3nc21	> 20
O=C(NC(=S)N1CCCc2ccccc21)c1ccccc1	> 20
Cc1ccc(C)c(-n2sc3cc(F)ccc3c2=O)c1	< 0.02
Sc1nnnn1-c1ccccc1	2.36
O=C(c1ccc(Cl)cc1)c1cc([N+](=O)[O-])ccc1N1CCOCC1	> 20
Cc1ccc(S(=O)(=O)N[C@@H](Cc2ccccc2)C(=O)CCl)cc1	1.37
CCN1CCN(C(c2ccc(C(F)(F)F)cc2)c2ccc3cccnc3c2O)CC1 (configuration not stated)	0.152
O=c1c(O)cccc2cc(O)c(O)c(O)c12	6.98
Cc1cc(-c2ccc(/N=N/c3ccc4c(S(=O)(=O)O)cc(S(=O)(=O)O)c(N)c4c3O)c(C)c2)ccc1/N=N/c1ccc2c(S(=O)(=O)O)cc(S(=O)(=O)O)c(N)c2c1O	> 20
O=C(O)C1=CC(=C(c2ccc(O)c(C(=O)O)c2)c2ccc(O)c(C(=O)O)c2)C=CC1=O	> 20
O=c1cc(-c2ccccc2)oc2cc(O)c(O)c(O)c12	> 20
CN(C)S(=O)(=O)c1cccc(-n2sc3ccccc3c2=O)c1	< 0.02
